Experimental findings from patent US20250296938A1, “Compounds that Interact with the Ras Superfamily for the Treatment of Cancers, Inflammatory Diseases, Rasopathies, and Fibrotic Disease” (SHY Therapeutics, LLC, priority 2018, published 2025) are described below.

In test [1] the test system is IL-6. Description: Mouse IL6 quantification assay, LPS-stimulated RAW 264.7 macrophages. As to conditions: for inhibition at 30 µM: RAW264.7, 30 μM, LPS-stimulated RAW 264.7 macrophages; for inhibition at 10 µM: RAW264.7, 10 μM, LPS (100 ng/ml) added concurrently, 5 hours, RAW 264.7. The test is classed as cell-based. As to the method:
(§1) Cell lines: Abelson murine leukemia virus transformed macrophage cell line RAW 264.7 was purchased from ATCC and grown in complete DMEM-High Glucose medium supplemented with penicillin (100 U/mL), streptomycin (100 μg/mL), and 10% heat-inactivated FBS at 37° C. in a humidified incubator with 5% CO2.
(§2) Method: Cells were plated at 25000-40000 cells/well density in a 96-well plate. After a 3-hour incubation, macrophages were starved with DMEM plus 0.5% FBS overnight. The next day the small molecules to be tested were added to the cells in the final concentration of 30 μM (with 0.3% DMSO) 3 hours prior to LPS stimulation (100 ng/ml). After LPS stimulation cells were incubated at 37° C. for 16 h. Alternatively, compounds were also tested at 10 μM and LPS (100 ng/ml) was added concurrently and incubated 5 hours at 37° C. At the end of the incubation periods, culture medium was collected and production of LPS-induced TNF-α and IL-6 cytokine was measured using ELISA detection kits.
(§3) Sandwich ELISA: The ELISA Immunoassays Quantikine Mouse TNF-alpha (catalog number MTA00B) and IL6 (catalog number M6000B) were purchased from R&D Systems Inc., Minneapolis, MN. These 4.5 hours solid phase ELISAs were used to measure mouse TNF-α or IL-6 levels in macrophages culture supernatants. Assays were executed according to the manufacturer specifications.

Test [2] has as its system TNF-α. The test can be described thus: Mouse TNF alpha quantification assay, LPS-stimulated RAW 264.7 macrophages. The test is classed as cell-based. As to conditions: for inhibition at 30 µM: RAW264.7, 30 μM, LPS-stimulated RAW 264.7 macrophages; for inhibition at 10 µM: RAW264.7, 10 μM, LPS (100 ng/ml) added concurrently, 5 hours, RAW 264.7, read-out: TNFα % Inhibition. As to the method: as §1, §2, §3

For `CC(C)NC(=O)c1nc(-c2nccn2C)nc(O)c1O` [drawing 737], the results for the inhibition at 30 µM in test [1] and in test [2] were 0% and 1 to 25%, respectively.
Take `CO[C@H]1C[C@@H](Nc2nc(-c3nccn3C)nc3sccc23)C1` [drawing 768]: the inhibition at 10 µM in test [1] was 26 to 50%; in test [2], 1 to 25%.
The like results for `COc1c(O)nc(-c2ccccn2)nc1Oc1ccc(C(=O)N(C)C)cc1` [drawing 744] were, in that order, 1 to 25% and 1 to 25%.
`COc1cccc(-c2sc3nc(-c4nccn4C)nc(N4CCC(OC)C4)c3c2-c2ccccc2)c1F` (stereo not shown) [drawing 719]: the inhibition at 30 µM in test [1] and in test [2] was 76 to 100% in each case.
As for `CCn1cc(Nc2nc(-c3ccccn3)nc(O)c2OC)cn1` [drawing 746], the inhibition at 10 µM was 76 to 100% in test [1] and 1 to 25% in test [2].
With `Cc1cn(C)c(-c2nc(O)c3scc(-c4ccccn4)c3n2)n1` [drawing 672], the inhibition at 30 µM in test [1] and in test [2] was 76 to 100% throughout.
Take `COc1cccc(Cn2ccnc2-c2nc(O)c3scc(-c4ccccn4)c3n2)c1` [drawing 670]: the inhibition at 30 µM in test [1] and in test [2] was 76 to 100% throughout.
As to `COCC(C)Nc1nc(-c2nccn2C)nc2sc(-c3cccc(OC)c3)c(-c3cscn3)c12` (stereo not shown) [drawing 693], the inhibition at 30 µM in test [1] and in test [2] was 26 to 50% throughout.
Consider `COCCCNc1nc(-c2nccn2C)nc2sc(-c3ccn(C)n3)c(-c3ccccc3)c12` [drawing 677], for which the inhibition at 30 µM in test [1] and in test [2] was 76 to 100% throughout.
With `COc1ncccc1-c1sc2nc(-c3nccn3C)nc(N3CCC(OC)C3)c2c1-c1ccccc1` (stereo not shown) [drawing 706], the inhibition at 30 µM in test [1] and in test [2] was 76 to 100% throughout.
Turning to `CCOc1cccc(Nc2nc(-c3ccccn3)nc(O)c2OC)c1` [drawing 747], the inhibition at 10 µM in test [1] fell in the range of 51 to 75%; in test [2] it was 1 to 25%.
For `COCC1CN(c2nc(-c3nccn3C)nc3sc(-c4cccc(OC)c4F)c(-c4ccc(OC)cc4)c23)C1` [drawing 718], the inhibition at 30 µM in test [1] and in test [2] was 76 to 100% each time.
For the compound `COc1cccc(-c2sc3nc(-c4nccn4C)nc(NC4CCC(OC)C4)c3c2-c2ccccc2)c1F` (stereo not shown) [drawing 748], the inhibition at 10 µM in test [1] and in test [2] was 76 to 100% in each case.
For `Cn1ccc(-c2sc3nc(-c4nccn4C)nc(N4CCC5(CCOC5)C4)c3c2-c2ccccc2)n1` (stereo not shown) [drawing 686], the inhibition at 30 µM in test [1] was 51 to 75%; in test [2], 0%.
Taken in the same sequence, the figures for `CO[C@@H]1CCC(Nc2nc(-c3nccn3C)nc3sc(-c4ccn(C)n4)c(-c4ccccc4)c23)C1` (stereo partly shown) [drawing 684] were 76 to 100% and 76 to 100%.
Taken in the same sequence, the figures for `O=C(NCc1ccccc1)c1nc(-c2ccccn2)nc(O)c1O` [drawing 730] were 76 to 100% and 76 to 100%.
Turning to `Cc1c(-c2ccn(C)n2)sc2nc(-c3nccn3C)nc(NCCCC(=O)N(C)C)c12` [drawing 782], the inhibition at 10 µM in test [1] and in test [2] was 1 to 25% in each case.
In the case of `COc1cccc(-c2sc3nc(-c4nccn4C)nc(N[C@H]4C[C@@H](OC)C4)c3c2-c2ccccc2)c1F` [drawing 756], the inhibition at 10 µM was in the range of 76 to 100% in test [1] and 51 to 75% in test [2].
As for `COc1c(O)nc(-c2ccccn2)nc1Oc1ccc2ncccc2c1` [drawing 721], the figures for the inhibition at 30 µM in test [1] and in test [2] were 76 to 100% and 1 to 25%, respectively.
In the case of `COc1cccc(-c2sc3nc(-c4nc(C)cn4C)nc(N[C@@H]4CC[C@H](OC)C4)c3c2C)c1F` [drawing 761], the inhibition at 10 µM in test [1] is 1 to 25%; in test [2] it was 0%.
For `COC1CCN(c2nc(-c3nccn3C)nc3sc(-c4ccncc4C)c(-c4ccccc4)c23)C1` (stereo not shown) [drawing 709], the inhibition at 30 µM in test [1] fell in the range of 76 to 100%; in test [2], 26 to 50%.
The like results for `Cn1ccnc1-c1nc(O)c(O)c(C(=O)NC2CCC2)n1` [drawing 742] were, in that order, 0% and 1 to 25%.
Regarding `COCCn1ccnc1-c1nc(O)c2scc(-c3ccc(OCC(C)C)nc3)c2n1` [drawing 763], the results for the inhibition at 10 µM in test [1] and in test [2] were 26 to 50% and 1 to 25%, respectively.
The like results for `CO[C@H]1CC[C@@H](Nc2nc(-c3ncc[nH]3)nc3sc(-c4ccn(C)n4)c(-c4ccccc4)c23)C1` [drawing 776] were, in that order, 76 to 100% and 26 to 50%.
For `COc1cccc(-c2sc3nc(-c4nccn4C)nc(NC4CCC(OC)C4)c3c2C)c1F` (stereo not shown) [drawing 758], the inhibition at 10 µM was 1 to 25% in test [1] and 0% in test [2].
For `CO[C@H]1CC[C@@H](Nc2nc(-c3nccn3C)nc3sc(-c4ccn(C(C)C)n4)c(-c4ccccc4)c23)C1` [drawing 777], the inhibition at 10 µM in test [1] and in test [2] was 76 to 100% in each case.
`COCCNc1nc(-c2nccn2C)nc2sc(-c3cccc(OC)c3)c(-c3ccc(OC)cc3)c12` [drawing 696]: the inhibition at 30 µM in test [1] and in test [2] was 76 to 100% in each case.
With `CO[C@H]1CC[C@@H](Nc2nc(-c3nccn3C)nc3sc(C(=O)N4CCOCC4)c(-c4ccccc4)c23)C1` [drawing 792], the inhibition at 10 µM in test [1] lay within 26 to 50%; in test [2], 1 to 25%.
As for `COc1c(F)cccc1-c1sc2nc(-c3nccn3C)nc(N[C@@H]3CC[C@H](OC)C3)c2c1-c1ccccc1` [drawing 752], the inhibition at 10 µM in test [1] and in test [2] was 0% throughout.
Turning to `COC1CCN(c2nc(-c3nccn3C)nc3sc(-c4ccc(N)nc4C)c(-c4ccccc4)c23)C1` (stereo not shown) [drawing 712], the inhibition at 30 µM in test [1] is 1 to 25%; in test [2] it was 0%.
Taken in the same sequence, the figures for `COCCn1ccnc1-c1nc(O)c2scc(-c3ccccn3)c2n1` [drawing 667] were 76 to 100% and 76 to 100%.
Taken in the same sequence, the figures for `COc1c(O)nc(-c2ccccn2)nc1Oc1cccnc1` [drawing 722] were 51 to 75% and 0%.
In the case of `CO[C@H]1CC[C@@H](Nc2nc(-c3nccn3C)nc3sc(-c4ccn(C)n4)c(C)c23)C1` [drawing 780], the figures for the inhibition at 10 µM in test [1] and in test [2] were 76 to 100% and 1 to 25%, respectively.
The like results for `COc1c(F)cccc1-c1sc2nc(-c3nccn3C)nc(NC3CCC(OC)C3)c2c1-c1ccccc1` (stereo not shown) [drawing 751] were, in that order, 1 to 25% and 0%.
As to `COc1cc(-c2sc3nc(-c4nccn4C)nc(N4CCC(OC)C4)c3c2-c2ccccc2)ccn1` (stereo not shown) [drawing 702], the inhibition at 30 µM in test [1] and in test [2] was 76 to 100% throughout.
With `COC1CCN(C(=O)c2sc3nc(-c4nccn4C)nc(N[C@H]4C[C@@H](OC)C4)c3c2-c2ccccc2)C1` (stereo partly shown) [drawing 788], the inhibition at 10 µM in test [1] and in test [2] was 0% throughout.
Consider `O=C(c1nc(-c2ccccn2)nc(O)c1O)N1CCCC1` [drawing 731], for which the inhibition at 30 µM in test [1] was 0%; in test [2], 1 to 25%.
For the compound `CO[C@H]1CC[C@@H](Nc2nc(-c3nccn3C)nc(C(=O)N3CCc4c(O)cccc4C3)c2C)C1` [drawing 766], the inhibition at 10 µM in test [1] is 0%; in test [2] it was 1 to 25%.
